Where a chain is given by its changes, count along the chain named. One block for each molecule: values may come before it.
Columns and labels:
[1] = tested on: 5HT2A receptors (cerebral cortex); test: I125-LSD displacement from brain sections, cortex (autoradiography); type: binding, Sprague-Dawley rats; details: 1 micromolar compound, 1 nanomolar I125-LSD, 30 minutes, room temperature
[2] = tested on: Adult male Sprague-Dawley rats; test: Amphetamine-stimulated locomotor activity; type: in vivo
Source text: A 5HT2A receptor antagonist or inverse agonist is expected to decrease amphetamine-stimulated locomotion without affecting baseline locomotion. See, for example, Soresnon, et al, 266(2) J. Pharmacol. Exp. Ther. 684 (1993). […] For the following study, the following parameters and protocol were utilized:
Adult male Sprague-Dawley rats were utilized for these studies. Animals were housed in groups of 2-3 in hanging plastic cages with food and water available at all times. Animals were weighed and handled for at least one day prior to surgery and throughout the studies. For these studies, Vehicle consisted of 90% ethanol (100%) and 10% water.
A San Diego Instruments Flex Field apparatus was used to quantify baseline and amphetamine-stimulated locomotor activity. This apparatus consists of four 16"×16" clear plastic open fields. Photocell arrays (16 in each dimension) interfaced with a personal computer to automatically quantify activity. Several measures of activity can be assessed with the apparatus, including total photocell beam breaks. Animals (vehicle control and Compound treated) were injected s.c. 30 minutes prior to initiation of analysis. Following this 30 minute period, animals were placed individually into an open field and baseline activity was assessed for 30 minutes (habituation phase). […]

[3] = tested on: human mutated 5HT2A receptor, AP-3; test: Receptor-mediated inositol phosphate (IP3) accumulation, AP-3; type: cell-based; details: statement in words
[4] = biological target: T1, constitutively active mutant human 5HT2C receptor AP-1 (Homo sapiens, UniProt P28335, S310K); test: [35S]GTPγS binding assay, AP-1 membranes; type: biochemical; details: 30 μM mianserin, 293T cells, Wallac scintistrips
T1 construct: expressed in transfected cells
T1 sequence (P28335 33-458 S310K): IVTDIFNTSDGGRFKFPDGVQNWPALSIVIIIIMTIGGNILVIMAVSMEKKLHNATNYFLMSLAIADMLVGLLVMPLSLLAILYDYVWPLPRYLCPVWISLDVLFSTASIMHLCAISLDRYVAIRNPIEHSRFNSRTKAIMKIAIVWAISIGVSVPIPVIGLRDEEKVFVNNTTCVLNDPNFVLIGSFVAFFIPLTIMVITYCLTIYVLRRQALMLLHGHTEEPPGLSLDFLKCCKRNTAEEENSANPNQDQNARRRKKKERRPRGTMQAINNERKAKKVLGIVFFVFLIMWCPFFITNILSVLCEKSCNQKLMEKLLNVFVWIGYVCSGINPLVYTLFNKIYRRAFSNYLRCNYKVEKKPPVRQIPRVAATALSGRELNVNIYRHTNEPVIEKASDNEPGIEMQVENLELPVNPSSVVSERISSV

[5] = biological target: T2, endogenous human 5-HT2C receptor (Homo sapiens, UniProt P28335)
T2 sequence (P28335 33-458): T1 sequence (P28335 33-458 S310K) with K278S

Structure (SMILES): COc1ccc(OC(=O)Nc2cccc(-c3nn(C)cc3Br)c2)cc1 [Compound 116100, N-[3-(4-bromo-1-methylpyrazol-3-yl)phenyl][4-methoxyphenoxy]carboxamide]
displacement of I125-LSD from cortex (5HT2A) [1]: appears to selectively displace the I^125 -LSD from the cortex (5HT2A)

Structure (SMILES): Cn1cc(Br)c(-c2cccc(NC(=O)c3cccs3)c2)n1 [Compound 116102, N-[3-(4-bromo-1-methylpyrazol-3-yl)phenyl][2-thienyl]carboxamide]
amphetamine-stimulated locomotion (photobeam breaks) ([2]; 116102 s.c. 0.1, 1.0, 5.0 mg/kg, d-amphetamine sulfate 1.0 mg/kg): a decrease in the amphetamine-stimulated locomotion
dose-response pattern of locomotor activity ([2]; 116102 s.c. 0.1-10 mg/kg, FIGS. 17A-C): a general "inverted U" shaped pattern was observed
inverse agonist activity at the human 5HT2A receptor [3]: potent inverse agonist

inhibition of serotonin-stimulated [35S]GTPγS binding, AP-1 (FIG. 10) [4]: inhibition
inhibition of serotonin-stimulated [35S]GTPγS binding (FIG. 9) ([5]; 30 μM mianserin, COS cells): completely inhibited
inhibition of serotonin-stimulated [35S]GTPγS binding (FIG. 10) ([5]; endogenous human 5-HT2C per text): inhibits this response
Structure (SMILES): CN1CCN2c3ccccc3Cc3ccccc3C2C1 (centres unmarked) [mianserin]
inhibition of basal constitutive [35S]GTPγS binding (FIG. 10) ([5]; no agonist, endogenous human 5-HT2C per text): acts as a partial inverse agonist by inhibiting the basal constitutive binding of [^35 S]GTPγS

Source: patent US6140509A (priority 1999, dated 2000)
